Assay results published in publication PMC10331583, “Control of fibrosis with enhanced safety via asymmetric inhibition of prolyl‐tRNA synthetase 1” (EMBO Molecular Medicine, 2023).

Experiments:
[1] = set-up: method as in earlier work; conditions: healthy adults; ref ANZCTR ACTRN12619001239156; ClinicalTrials.gov NCT04767815, NCT04888715, NCT04888728; cited from earlier work
[2] = Pharmacokinetic study (plasma, LC-MS/MS); type: in vivo, C57BL/6 male mice; conditions: 3, 10 and 30 mg/kg, single dose, intravenous and oral
Experimental: All experiments were performed according to the guidelines on the Institutional Animal Care and Use Committee of QuBEST BIO (QBIACUC‐A21112). Seven‐week‐old C57BL/6 male mice were purchased from Samtako (Osan, South Korea) and fed with regular chow and water ad libitum for 1 week before the experiments. Nine C57BL/6 mice in each group received three single ascending doses (3, 10, and 30 mg/kg) of DWN12088 formulated in normal saline intravenously and orally in fasted conditions. Post‐dosing serial blood samples were obtained using eye bleeding into heparinized capillary tubes with composite sampling (three mice per time point) at predetermined time points. The plasma was separated from the whole blood by centrifugation at 15,000 g for 2 min at 4°C, and then the proteins were precipitated using acetonitrile containing a deuterated‐labeled DWN12088 as an internal standard (IS).
The amount of DWN12088 in mouse plasma was measured by the AB Sciex ExionLC HPLC system connected to an AB Sciex 6500+ Qtrap mass spectrometer equipped with an electrospray ionization (ESI) source (AB Sciex LLC, Framingham, MA, USA). […] The gradient elution program was set as follows: 0–1 min, 10% B; 1.0–1.5 min, 10–95% B; 1.5–3.6 min, 95% B; 4.0–6.0 min, 10% B. Multiple reaction monitoring (MRM) was selected for the quantification of DWN12088 and IS in positive ion mode. […]

C57BL/6 mice = assay: Bleomycin‐induced lung fibrosis, preventive model; type: in vivo; conditions: 3 weeks
Experimental: In a preventive model of bleomycin‐induced lung fibrosis, all experiments were conducted following the international guidelines on the ethical use of experimental animals and approved by the Institutional Animal Care and Use Committee of Aragen Bioscience (17‐0331‐M‐1). C57BL/6 mice (6–7‐week‐old, male, obtained from Simonsen Laboratories) were randomized into groups (n = 10 for each group) such that mean body weights were similar for the different groups. Oral administration of the compounds (vehicle, DWN12088, and pirfenidone) was started a day before oropharyngeal administration of 70 μl bleomycin (2 units/kg). DWN12088 (3, 10, 30 mg/kg) was treated once a day while 100 mg/kg pirfenidone was treated twice a day (200 mg/kg/day) for 3 weeks, and then the outcome was analyzed.

LX2 cells = assay: Determination of collagen level using 3D culture (hydroxyproline); type: cell-based; conditions: Homo sapiens, LX-2, read-out: IC50 for collagen level
Experimental: To screen HF derivatives, LX2 cells were resuspended with growth medium containing 20% Matrigel (BD Bioscience, 354234) and then seeded at 1 × 10^4 cells/well on a Lipidure‐coated U bottom 96‐well plate (NOF, LCU96). After 48 h, the cells were treated with TGF‐β1 (Sigma‐Aldrich, T7039) for 24 h to mimic fibrotic conditions and then additionally incubated in the presence of various concentrations of test compounds for 48 h. To determine the level of collagen, hydroxyproline levels were measured following the manufacturer's instructions (BioVision, K555‐100). Briefly, after the cells were incubated with HCl for 3 h at 120°C, the soluble supernatant was prepared using activated charcoal (Sigma‐Aldrich, 161551). The samples were dried for 3 h at 60°C and then, incubated with chloramine T mixture for 10 min and Ehrlich's reagent for 90 min at 60°C. The level of hydroxyproline was determined by measuring the absorbance at 540 nm.

in vitro [3] = conditions: human, Cytotoxicity
[4] = system: WI‐26 VA4 cells stably expressing EV (empty vector); conditions: human, 72 h
[5] = system: WI‐26 VA4 cells stably expressing PARS1 FA/EA/RL mutant; conditions: human, 72 h
in vitro [6] = conditions: human, Cytotoxicity; remark: listed apart in the source
[7] = % of control (single replicates, Experiment #1-#4)

O[C@H]1CCCN[C@@H]1CCCn1cnc2c(Cl)c(Cl)ccc21 [DWN12088]
safety in phase 1 studies [1]: validated its safety in phase 1 studies | plasma concentrations [2]: higher at 30 mg/kg | fibrotic properties (modified Ashcroft score, lung weight, collagen content in BALF) (C57BL/6 mice; 10 mg/kg once a day): alleviated fibrotic properties | fibrotic properties (modified Ashcroft score, lung weight, collagen content in BALF) (C57BL/6 mice; 30 mg/kg once a day): alleviated fibrotic properties | IC50 (LX2 cells): 43.1 nM

O=C(CC1NCCCC1O)Cn1cnc2cc(Br)c(Cl)cc2c1=O (stereo not shown) [HF, Halofuginone, reference compound]
activity at 72 h, 0.1 µM (in vitro [3]; [7]): 34.2% | activity at 72 h, 0.001 µM (in vitro [3]; % of control, average): 101% | activity at 72 h, 0.003 µM (in vitro [3]; % of control, average): 107% | activity at 72 h, 0.03 µM (in vitro [3]; % of control, average): 73.6% | activity at 72 h, 0.1 µM (in vitro [3]; % of control, average): 42.5% | activity at 72 h, 1 µM (in vitro [3]; % of control, average): 19.4% | Cytotoxicity HillSlope (best-fit value) [4]: -0.8001 | Cytotoxicity LogIC50 (best-fit value) [4]: 1.811 | TI (CC50/IC50 for collagen level) (WI‐26 VA4 cells): 3.46 | Cytotoxicity HillSlope (best-fit value) [5]: -0.8245 | Cytotoxicity LogIC50 (best-fit value) [5]: 1.805 | activity at 72 h, 0.001 µM (in vitro [6]; [7]): 107% | activity at 72 h, 0.01 µM (in vitro [6]; [7]): 96.3% | activity at 72 h, 0.03 µM (in vitro [6]; [7]): 71.4% | activity at 72 h, 0.3 µM (in vitro [6]; [7]): 34.8% | activity at 72 h, 0.001 µM (in vitro [6]; % of control, average): 106% | activity at 72 h, 0.003 µM (in vitro [6]; % of control, average): 109% | activity at 72 h, 0.03 µM (in vitro [6]; % of control, average): 76.1% | activity at 72 h, 0.1 µM (in vitro [6]; % of control, average): 41.8% | activity at 72 h, 1 µM (in vitro [6]; % of control, average): 20%
